The values that follow come from patent US9434743B2, “Indazole derivatives” (TAKEDA PHARMACEUTICAL COMPANY LIMITED, priority 2012, dated 2016).

For experiment [1], the target named is T1, human MetAP2 enzyme (Homo sapiens, UniProt P50579). The experiment in a line: MetAP2 enzyme assay, enzyme complexed with cobalt ions. The conditions noted are these: MetAP2 Co pIC50, MetAP2 enzyme complexed with cobalt ions; Met-AMC substrate at Km.
Procedure: DNA encoding the full-length sequence of human MetAP2 enzyme is amplified by PCR and cloned into a pFastBac expression vector (Invitrogen). Recombinant baculovirus incorporating the MetAP2 construct is generated by transposition using the Bac-to-Bac system (Invitrogen). The expression of recombinant protein is carried out by infection of Spodoptera frugiperda Sf9 cells (Invitrogen) in 5 L Wave Bioreactors (Wave Biotech). Recombinant protein is isolated from cellular extracts by binding to an SP Hitrap Fast Flow or SP Sepharose (Sigma) column, and the protein is eluted using a NaCl gradient. Partially purified extracts of MetAP2 are further purified by an AKTA FPLC over a Superdex-200 column (GE). The purity of MetAP2 protein is determined on denaturing SDS-PAGE gel.
The results for each well are expressed as percent inhibition and calculated using the equation:
The target in experiment [2] is T1, human MetAP2 enzyme. The experiment in a line: MetAP2 enzyme assay, enzyme complexed with manganese ions. The conditions noted are these: MetAP2 Mn pIC50, MetAP2 enzyme complexed with manganese ions; Met-AMC substrate at Km.

T1 sequence (P50579 whole entry): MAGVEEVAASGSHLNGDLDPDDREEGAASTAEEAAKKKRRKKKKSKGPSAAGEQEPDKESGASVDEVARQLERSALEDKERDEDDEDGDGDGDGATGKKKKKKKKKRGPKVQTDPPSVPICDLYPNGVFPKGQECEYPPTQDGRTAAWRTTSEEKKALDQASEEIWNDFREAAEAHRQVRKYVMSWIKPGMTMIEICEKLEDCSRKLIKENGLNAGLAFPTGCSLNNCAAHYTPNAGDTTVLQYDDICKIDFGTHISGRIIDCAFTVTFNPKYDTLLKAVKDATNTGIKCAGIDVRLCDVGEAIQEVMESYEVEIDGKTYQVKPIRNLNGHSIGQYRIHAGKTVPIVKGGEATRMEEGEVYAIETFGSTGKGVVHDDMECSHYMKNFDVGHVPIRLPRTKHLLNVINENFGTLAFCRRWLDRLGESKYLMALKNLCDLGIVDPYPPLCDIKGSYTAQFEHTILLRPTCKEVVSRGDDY

Consider `NC(=O)c1ccc(F)c(-c2cc(C(F)(F)F)cc3[nH]ncc23)c1` [Example 326, 4-fluoro-3-(6-(trifluoromethyl)-1H-indazol-4-yl)benzamide], for which the IC50 in experiment [1] was 31.6 nM; in experiment [2], 12.6 nM.
For `Cc1nn(C)c(C(N)=O)c1-c1cc(C(F)(F)F)cc2[nH]ncc12` [Example 327, 1,3-dimethyl-4-(6-(trifluoromethyl)-1H-indazol-4-yl)-1H-pyrazole-5-carboxamide] the same measures were 631 nM and 63.1 nM.
For `COc1ccc(C(=O)N2CC(O)C2)cc1-c1cc(C(F)(F)F)cc2[nH]ncc12` [Example 328, (3-hydroxyazetidin-1-yl)(4-methoxy-3-(6-(trifluoromethyl)-1H-indazol-4-yl)phenyl)methanone] the same measures were 12.6 nM and 12.6 nM.
For `NS(=O)(=O)c1cccc(-c2cc(C(F)(F)F)cc3[nH]ncc23)c1` [Example 329, 3-(6-(trifluoromethyl)-1H-indazol-4-yl)benzenesulfonamide] the same measures were 39.8 nM and 15.8 nM.
For the compound `O=C(NCCO)c1ccc(-c2cc(C(F)(F)F)cc3[nH]ncc23)c(Cl)c1` [Example 331, 3-chloro-N-(2-hydroxyethyl)-4-(6-(trifluoromethyl)-1H-indazol-4-yl)benzamide], the IC50 was 15.8 nM in experiment [1] and 10 nM in experiment [2].
For `O=C(NC1CC1)c1c[nH]c(=O)c(-c2cc(C(F)(F)F)cc3[nH]ncc23)c1` [Example 332, N-cyclopropyl-6-oxo-5-(6-(trifluoromethyl)-1H-indazol-4-yl)-1,6-dihydropyridine-3-carboxamide] the same measures were 316 nM and 12.6 nM.
Regarding `N#CCNC(=O)c1c[nH]c(=O)c(-c2cc(C(F)(F)F)cc3[nH]ncc23)c1` [Example 333, N-(cyanomethyl)-6-oxo-5-(6-(trifluoromethyl)-1H-indazol-4-yl)-1,6-dihydropyridine-3-carboxamide], the results for the IC50 in experiment [1] and in experiment [2] were 251 nM and 12.6 nM, respectively.
For `CN(C)C(=O)c1c[nH]c(=O)c(-c2cc(C(F)(F)F)cc3[nH]ncc23)c1` [Example 334, N,N-dimethyl-6-oxo-5-(6-(trifluoromethyl)-1H-indazol-4-yl)-1,6-dihydropyridine-3-carboxamide] the same measures were 794 nM and 20 nM.
Consider `C[C@H](O)CNC(=O)c1c[nH]c(=O)c(-c2cc(C(F)(F)F)cc3[nH]ncc23)c1` [Example 335, (S)—N-(2-hydroxypropyl)-6-oxo-5-(6-(trifluoromethyl)-1H-indazol-4-yl)-1,6-dihydropyridine-3-carboxamide], for which the results for the IC50 in experiment [1] and in experiment [2] were 631 nM and 15.8 nM, respectively.
For `C[C@@H](O)CNC(=O)c1c[nH]c(=O)c(-c2cc(C(F)(F)F)cc3[nH]ncc23)c1` [Example 336, (R)—N-(2-hydroxypropyl)-6-oxo-5-(6-(trifluoromethyl)-1H-indazol-4-yl)-1,6-dihydropyridine-3-carboxamide] the same measures were 631 nM and 10 nM.
For `O=C(NCC(O)CO)c1c[nH]c(=O)c(-c2cc(C(F)(F)F)cc3[nH]ncc23)c1` (stereo not drawn) [Example 337, N-(2,3-dihydroxypropyl)-6-oxo-5-(6-(trifluoromethyl)-1H-indazol-4-yl)-1,6-dihydropyridine-3-carboxamide] the same measures were 398 nM and 15.8 nM.
Consider `O=C(NCC(F)F)c1c[nH]c(=O)c(-c2cc(C(F)(F)F)cc3[nH]ncc23)c1` [Example 338, N-(2,2-difluoroethyl)-6-oxo-5-(6-(trifluoromethyl)-1H-indazol-4-yl)-1,6-dihydropyridine-3-carboxamide], for which the IC50 in experiment [1] was 398 nM; in experiment [2] it was 10 nM.
For `Fc1c[nH]c2ncc(-c3cc(C(F)(F)F)cc4[nH]ncc34)cc12` [Example 339, 4-(3-fluoro-1H-pyrrolo[2,3-b]pyridin-5-yl)-6-(trifluoromethyl)-1H-indazole] the same measures were 126 nM and 20 nM.
For `Cc1c[nH]c2ncc(-c3cc(C(F)(F)F)cc4[nH]ncc34)cc12` [Example 340, 4-(3-methyl-1H-pyrrolo[2,3-b]pyridin-5-yl)-6-(trifluoromethyl)-1H-indazole] the same measures were 100 nM and 15.8 nM.
For `Cc1nc2cc(-c3cc(C(F)(F)F)cc4[nH]ncc34)cnc2[nH]1` [Example 341, 2-methyl-6-(6-(trifluoromethyl)-1H-indazol-4-yl)-3H-imidazo[4,5-b]pyridine] the same measures were 15.8 nM and 7.94 nM.
Regarding `NS(=O)(=O)c1ccc(-c2cc(C(F)(F)F)cc3[nH]ncc23)c(F)c1` [Example 342, 3-fluoro-4-(6-(trifluoromethyl)-1H-indazol-4-yl)benzenesulfonamide], the IC50 is 39.8 nM in experiment [1] and 6.31 nM in experiment [2].
As for `NS(=O)(=O)c1ccc(-c2cc(C(F)(F)F)cc3[nH]ncc23)cc1Cl` [Example 343, 2-chloro-4-(6-(trifluoromethyl)-1H-indazol-4-yl)benzenesulfonamide], the results for the IC50 in experiment [1] and in experiment [2] were 100 nM and 6.31 nM, respectively.
For `NS(=O)(=O)c1ccc(-c2cc(C(F)(F)F)cc3[nH]ncc23)cc1F` [Example 344, 2-fluoro-4-(6-(trifluoromethyl)-1H-indazol-4-yl)benzenesulfonamide] the same measures were 100 nM and 6.31 nM.
For `NS(=O)(=O)c1ccc(-c2cc(C(F)(F)F)cc3[nH]ncc23)cn1` [Example 345, 5-(6-(trifluoromethyl)-1H-indazol-4-yl)pyridine-2-sulfonamide] the same measures were 100 nM and 5.01 nM.
For `NS(=O)(=O)c1cncc(-c2cc(C(F)(F)F)cc3[nH]ncc23)c1` [Example 346, 5-(6-(trifluoromethyl)-1H-indazol-4-yl)pyridine-3-sulfonamide] the same measures were 100 nM and 5.01 nM.
As to `CS(=O)(=O)c1ccc(-c2cc(C(F)(F)F)cc3[nH]ncc23)cc1` [Example 347, 4-(4-(methylsulfonyl)phenyl)-6-(trifluoromethyl)-1H-indazole], the results for the IC50 in experiment [1] and in experiment [2] were 63.1 nM and 6.31 nM, respectively.
Regarding `Cc1nn(C(F)F)c(C)c1-c1cc(C(F)(F)F)cc2[nH]ncc12` [Example 348, 4-(1-(difluoromethyl)-3,5-dimethyl-1H-pyrazol-4-yl)-6-(trifluoromethyl)-1H-indazole], the figures for the IC50 in experiment [1] and in experiment [2] were 79.4 nM and 12.6 nM, respectively.
For `OCCn1cc(-c2cc(C(F)(F)F)cc3[nH]ncc23)cn1` [Example 349, 2-(4-(6-(trifluoromethyl)-1H-indazol-4-yl)-1H-pyrazol-1-yl)ethanol] the same measures were 100 nM and 6.31 nM.
For `COc1ccc(CC(N)=O)cc1-c1cc(C(F)(F)F)cc2[nH]ncc12` [Example 350, 2-(4-methoxy-3-(6-(trifluoromethyl)-1H-indazol-4-yl)phenyl)acetamide] the same measures were 31.6 nM and 7.94 nM.
For `NS(=O)(=O)c1ccc(-c2cc(C(F)(F)F)cc3[nH]ncc23)c(Cl)c1` [Example 351, 3-chloro-4-(6-(trifluoromethyl)-1H-indazol-4-yl)benzenesulfonamide] the same measures were 39.8 nM and 12.6 nM.
Turning to `Cc1nn(CC(=O)NC(C)C)c(C)c1-c1cc(C(F)(F)F)cc2[nH]ncc12` [Example 352, 2-(3,5-dimethyl-4-(6-(trifluoromethyl)-1H-indazol-4-yl)-1H-pyrazol-1-yl)-N-isopropylacetamide], the values for the IC50 in experiment [1] and in experiment [2] were 39.8 nM and 20 nM, respectively.
In the case of `CN(C)C(=O)c1cc(-c2cc(C(F)(F)F)cc3[nH]ncc23)c(=O)n(C)c1` [Example 353, N,N,1-trimethyl-6-oxo-5-(6-(trifluoromethyl)-1H-indazol-4-yl)-1,6-dihydropyridine-3-carboxamide], the values for the IC50 in experiment [1] and in experiment [2] were 794 nM and 15.8 nM, respectively.
For `Cn1cc(C(=O)NCC#N)cc(-c2cc(C(F)(F)F)cc3[nH]ncc23)c1=O` [Example 354, N-(cyanomethyl)-1-methyl-6-oxo-5-(6-(trifluoromethyl)-1H-indazol-4-yl)-1,6-dihydropyridine-3-carboxamide] the same measures were 316 nM and 6.31 nM.
For `Cn1cc(C(=O)NCC(F)F)cc(-c2cc(C(F)(F)F)cc3[nH]ncc23)c1=O` [Example 355, N-(2,2-difluoroethyl)-1-methyl-6-oxo-5-(6-(trifluoromethyl)-1H-indazol-4-yl)-1,6-dihydropyridine-3-carboxamide] the same measures were 316 nM and 5.01 nM.
For `Cn1cc(C(=O)NCC(O)CO)cc(-c2cc(C(F)(F)F)cc3[nH]ncc23)c1=O` (stereo not drawn) [Example 356, N-(2,3-dihydroxypropyl)-1-methyl-6-oxo-5-(6-(trifluoromethyl)-1H-indazol-4-yl)-1,6-dihydropyridine-3-carboxamide] the same measures were 316 nM and 6.31 nM.
On to `Cn1cc(C(=O)NC2CC2)cc(-c2cc(C(F)(F)F)cc3[nH]ncc23)c1=O` [Example 357, N-cyclopropyl-1-methyl-6-oxo-5-(6-(trifluoromethyl)-1H-indazol-4-yl)-1,6-dihydropyridine-3-carboxamide], for which the IC50 was 200 nM in experiment [1] and 7.94 nM in experiment [2].
For `C[C@@H](O)CNC(=O)c1cc(-c2cc(C(F)(F)F)cc3[nH]ncc23)c(=O)n(C)c1` [Example 358, (R)—N-(2-hydroxypropyl)-1-methyl-6-oxo-5-(6-(trifluoromethyl)-1H-indazol-4-yl)-1,6-dihydropyridine-3-carboxamide] the same measures were 501 nM and 10 nM.
For the compound `C[C@H](O)CNC(=O)c1cc(-c2cc(C(F)(F)F)cc3[nH]ncc23)c(=O)n(C)c1` [Example 359, (S)—N-(2-hydroxypropyl)-1-methyl-6-oxo-5-(6-(trifluoromethyl)-1H-indazol-4-yl)-1,6-dihydropyridine-3-carboxamide], the figures for the IC50 in experiment [1] and in experiment [2] were 501 nM and 10 nM, respectively.
